# Source: publication PMC9889419 (Pharmacological Reports, 2022)
# Where a name gives a salt, the structure may show the parent alone. Marks after values point to notes of the source that are not given here.
# Key:
# guinea pigs = assay: Corneal anesthesia; type: in vivo
# Protocol: A. Corneal anesthesia. […] The corneal reflex was examined by irritation of right eye conjunctiva (studied eye) and a left eye conjunctiva (control eye) by horsehair. The strength of local anesthetic activity was determined from the moment of solution instillation to the moment of reflex return. The presence or lack of corneal reflex were assessed. The eye conjunctiva irritation was done 6 times (every 5 s) with the interval of 5 min during the first 30 min [31].
# [1] = pKa by potentiometric titration; type: physicochemical; conditions: aqueous solution titrated with 0.051 M NaOH; 37 °C
# Protocol: pKa. The assay was performed by potentiometric titration, at 37 °C. The method is based on the additional portions of 0.051 M NaOH solution to the aqueous solution of test compounds, on electromagnetic stirrer with contact thermometer (Heidolph MR Hei-Standard). NaOH solution was added in 500 μL portions using Eppendorf automatic pipette. Waiting a few seconds after each titrant addition allowed the solution temperature to stabilize. After this time pH was recorded with the use of pH-meter CP-551 (Elmetron) for precise determination of pH in laboratory conditions (pH 0–14; pH accuracy ± 0.01) with combined chloride electrode OSH-10-10 (enables measurements in the temperature range 0–60 °C and pH range 1–12). Then, next portion of titrant was added. Titration was completed after 15 mL of NaOH solution was added. Threefold repetitions of titration were applied. pKa of the tested compound was calculated on the basis of the pH values obtained.
# [2] = Degradation kinetics under basic conditions; type: physicochemical; conditions: 70.0 ± 0.5 °C, pH 9.90, 1,4-dioxane 20% v/v
# Protocol: Chromatographic conditions. The liquid chromatography system Merck-Hitachi LaChrom Elite, equipped with a LiChroSpher RP-18 (250 × 4.6 mm; particle size 5 µm) column from Merck was used. Isocratic elution using a mobile phase composed of phosphate buffer pH = 4.36 and acetonitrile (40:60, v/v) at a flow rate of 1 mL min^−1 at 25 °C and single-wavelength UV detection at 260 nm was applied for the analysis. The injection volume was 20 µL.
# Kinetic studies. […] After 5 min, first 50 µL sample was taken using a Hamilton syringe. The sample was diluted with 100 µL of pH = 4.36 phosphate buffer and frozen at − 18 °C. The reaction was conducted for 1606 h with samples taken at selected time intervals. After the experiment was finished, the samples have been defrosted and analyzed using the RP-HPLC method described above.
# Acute toxicity (LD50) = conditions: in vivo; for LD50 at 24 h: iv; for LD50 at 72 h: po
# Protocol: Acute toxicity. The tested compounds were dissolved in 0.9% saline and administered po and injected into the caudal vein (iv) of mouse or rats at the constant volume of 10 mL/kg and 1 mL/kg, respectively. Each dose was given to six animals.
# hNav1.3 sodium channel = molecular target: T1, hNav1.3 sodium channel (Homo sapiens, UniProt Q9NY46); assay: Nav channel electrophysiology (IonWorks Quattro); type: cell-based
# T1 construct: host or cells: CHO cells
# hNav1.6 sodium channel = molecular target: T2, hNav1.6 sodium channel (Homo sapiens, UniProt Q9UQD0); assay: Nav channel electrophysiology (IonWorks Quattro); type: cell-based
# T2 construct: host or cells: CHO cells
# BB (non-selective) = assay: Radioligand binding; parameters: species or system rat; conditions: 100 μM
# Protocol: (§1) Radioligand binding. Radioligand binding assays were performed at Eurofins CEREP (France). The results are expressed as a percent of control specific binding (measured specific binding*100/control specific binding) and as a percent inhibition of control specific binding (100-(measured specific binding*100)/control specific binding) obtained in the presence of the test compounds. The IC50 values (concentration causing a half-maximal inhibition of control specific binding) and Hill coefficients (nH) were determined by non-linear regression analysis of the competition curves generated with mean replicate values using Hill equation curve fitting (Y = D + [A-D]/[1 + (C/C50)^nH], where Y = specific binding, A = left asymptote of the curve, D = right asymptote of the curve, C = compound concentration, C50 = IC50, and nH = slope factor). This analysis was performed using software developed at Cerep (Hill software) and validated by comparison with data generated by the commercial software SigmaPlot® 4.0 for Windows® (© 1997 by SPSS Inc.). The inhibition constants (Ki) were calculated using the Cheng Prusoff equation (Ki = IC50/[1 + L/KD], where L = concentration of radioligand in the assay, and KD = affinity of the radioligand for the receptor). A scatchard plot is used to determine the Kd.
# Cl- channel (GABA-gated) = assay: Radioligand binding; parameters: species or system rat; conditions: 100 μM
# Protocol: as §1
# GABA (non-selective) = assay: Radioligand binding; parameters: species or system rat; conditions: 100 μM
# Protocol: as §1
# KV channel = assay: Radioligand binding; parameters: species or system rat; conditions: 100 μM
# Protocol: as §1
# P2X = assay: Radioligand binding; parameters: species or system rat; conditions: 100 μM
# Protocol: as §1
# P2Y = assay: Radioligand binding; parameters: species or system rat; conditions: 100 μM
# Protocol: as §1
# PCP = assay: Radioligand binding; parameters: species or system rat; conditions: 100 μM
# Protocol: as §1
# SKCa channel = assay: Radioligand binding; parameters: species or system rat; conditions: 100 μM
# Protocol: as §1
# MTLE mice = MTLE mice acute screen evaluation; type: in vivo
# NMDA = assay: Electrophysiology studies (Test 17); type: cell-based; conditions: 100 uM, holding potential -70 mV
# Excerpt: Solvent Code: DMSO Solvent Prep: 257.759
# Test Add CompoundConc.(uM) # Cells % Control +/- SEM
# (1 picture or pasted object on this page, not shown here)
# T1 sequence (Q9NY46 whole entry): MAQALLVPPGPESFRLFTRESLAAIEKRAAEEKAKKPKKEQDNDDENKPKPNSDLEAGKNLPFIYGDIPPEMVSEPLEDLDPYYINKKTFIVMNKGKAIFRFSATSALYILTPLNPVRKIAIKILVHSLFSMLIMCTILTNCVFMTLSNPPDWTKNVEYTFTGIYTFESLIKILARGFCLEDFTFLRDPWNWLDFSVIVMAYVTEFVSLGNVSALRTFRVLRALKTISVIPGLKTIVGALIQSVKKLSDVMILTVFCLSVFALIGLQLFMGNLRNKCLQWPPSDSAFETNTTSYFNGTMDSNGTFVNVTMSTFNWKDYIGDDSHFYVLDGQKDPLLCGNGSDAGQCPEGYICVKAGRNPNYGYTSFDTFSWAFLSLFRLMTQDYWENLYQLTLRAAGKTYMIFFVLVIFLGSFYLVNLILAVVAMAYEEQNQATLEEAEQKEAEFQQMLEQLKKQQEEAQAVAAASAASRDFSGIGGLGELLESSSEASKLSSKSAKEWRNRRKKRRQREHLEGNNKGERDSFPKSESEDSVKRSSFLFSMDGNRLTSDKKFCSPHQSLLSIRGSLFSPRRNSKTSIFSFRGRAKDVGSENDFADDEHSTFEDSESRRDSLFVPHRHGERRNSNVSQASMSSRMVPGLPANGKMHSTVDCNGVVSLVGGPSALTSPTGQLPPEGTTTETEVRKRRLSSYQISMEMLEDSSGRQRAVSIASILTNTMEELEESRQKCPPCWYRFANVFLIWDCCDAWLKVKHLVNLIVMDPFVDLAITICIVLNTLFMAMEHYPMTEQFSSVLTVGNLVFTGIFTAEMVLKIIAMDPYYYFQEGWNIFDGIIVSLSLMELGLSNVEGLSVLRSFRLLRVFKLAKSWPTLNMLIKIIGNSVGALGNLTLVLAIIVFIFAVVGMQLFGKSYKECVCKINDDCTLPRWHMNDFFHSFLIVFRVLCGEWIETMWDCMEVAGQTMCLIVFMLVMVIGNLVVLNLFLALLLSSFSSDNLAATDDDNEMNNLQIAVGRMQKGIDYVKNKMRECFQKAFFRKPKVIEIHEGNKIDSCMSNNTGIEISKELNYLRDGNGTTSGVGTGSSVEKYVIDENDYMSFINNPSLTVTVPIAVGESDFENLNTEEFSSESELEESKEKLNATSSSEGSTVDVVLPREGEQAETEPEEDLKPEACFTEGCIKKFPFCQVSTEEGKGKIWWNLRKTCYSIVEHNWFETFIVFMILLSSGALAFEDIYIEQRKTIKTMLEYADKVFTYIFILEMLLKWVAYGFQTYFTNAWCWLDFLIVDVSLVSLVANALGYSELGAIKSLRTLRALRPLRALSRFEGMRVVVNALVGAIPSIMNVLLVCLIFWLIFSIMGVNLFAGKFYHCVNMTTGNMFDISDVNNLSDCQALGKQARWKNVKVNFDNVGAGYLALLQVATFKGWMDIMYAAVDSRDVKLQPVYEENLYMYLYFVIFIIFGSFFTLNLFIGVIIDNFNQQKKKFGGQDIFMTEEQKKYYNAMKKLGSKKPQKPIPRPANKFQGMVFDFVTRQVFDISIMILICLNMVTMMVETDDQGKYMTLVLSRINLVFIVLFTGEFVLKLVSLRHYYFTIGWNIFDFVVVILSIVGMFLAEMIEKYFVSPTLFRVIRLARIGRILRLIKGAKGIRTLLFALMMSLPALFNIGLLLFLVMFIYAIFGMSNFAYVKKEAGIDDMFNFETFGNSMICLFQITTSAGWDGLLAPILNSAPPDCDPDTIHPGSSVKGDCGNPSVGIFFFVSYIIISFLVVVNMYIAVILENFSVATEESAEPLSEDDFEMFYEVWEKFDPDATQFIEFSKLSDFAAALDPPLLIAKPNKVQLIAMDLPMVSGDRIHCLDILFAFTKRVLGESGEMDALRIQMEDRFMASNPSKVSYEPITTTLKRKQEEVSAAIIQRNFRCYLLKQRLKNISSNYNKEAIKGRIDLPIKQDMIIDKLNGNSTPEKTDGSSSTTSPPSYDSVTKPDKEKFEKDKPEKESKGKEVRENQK
# T2 sequence (Q9UQD0 whole entry): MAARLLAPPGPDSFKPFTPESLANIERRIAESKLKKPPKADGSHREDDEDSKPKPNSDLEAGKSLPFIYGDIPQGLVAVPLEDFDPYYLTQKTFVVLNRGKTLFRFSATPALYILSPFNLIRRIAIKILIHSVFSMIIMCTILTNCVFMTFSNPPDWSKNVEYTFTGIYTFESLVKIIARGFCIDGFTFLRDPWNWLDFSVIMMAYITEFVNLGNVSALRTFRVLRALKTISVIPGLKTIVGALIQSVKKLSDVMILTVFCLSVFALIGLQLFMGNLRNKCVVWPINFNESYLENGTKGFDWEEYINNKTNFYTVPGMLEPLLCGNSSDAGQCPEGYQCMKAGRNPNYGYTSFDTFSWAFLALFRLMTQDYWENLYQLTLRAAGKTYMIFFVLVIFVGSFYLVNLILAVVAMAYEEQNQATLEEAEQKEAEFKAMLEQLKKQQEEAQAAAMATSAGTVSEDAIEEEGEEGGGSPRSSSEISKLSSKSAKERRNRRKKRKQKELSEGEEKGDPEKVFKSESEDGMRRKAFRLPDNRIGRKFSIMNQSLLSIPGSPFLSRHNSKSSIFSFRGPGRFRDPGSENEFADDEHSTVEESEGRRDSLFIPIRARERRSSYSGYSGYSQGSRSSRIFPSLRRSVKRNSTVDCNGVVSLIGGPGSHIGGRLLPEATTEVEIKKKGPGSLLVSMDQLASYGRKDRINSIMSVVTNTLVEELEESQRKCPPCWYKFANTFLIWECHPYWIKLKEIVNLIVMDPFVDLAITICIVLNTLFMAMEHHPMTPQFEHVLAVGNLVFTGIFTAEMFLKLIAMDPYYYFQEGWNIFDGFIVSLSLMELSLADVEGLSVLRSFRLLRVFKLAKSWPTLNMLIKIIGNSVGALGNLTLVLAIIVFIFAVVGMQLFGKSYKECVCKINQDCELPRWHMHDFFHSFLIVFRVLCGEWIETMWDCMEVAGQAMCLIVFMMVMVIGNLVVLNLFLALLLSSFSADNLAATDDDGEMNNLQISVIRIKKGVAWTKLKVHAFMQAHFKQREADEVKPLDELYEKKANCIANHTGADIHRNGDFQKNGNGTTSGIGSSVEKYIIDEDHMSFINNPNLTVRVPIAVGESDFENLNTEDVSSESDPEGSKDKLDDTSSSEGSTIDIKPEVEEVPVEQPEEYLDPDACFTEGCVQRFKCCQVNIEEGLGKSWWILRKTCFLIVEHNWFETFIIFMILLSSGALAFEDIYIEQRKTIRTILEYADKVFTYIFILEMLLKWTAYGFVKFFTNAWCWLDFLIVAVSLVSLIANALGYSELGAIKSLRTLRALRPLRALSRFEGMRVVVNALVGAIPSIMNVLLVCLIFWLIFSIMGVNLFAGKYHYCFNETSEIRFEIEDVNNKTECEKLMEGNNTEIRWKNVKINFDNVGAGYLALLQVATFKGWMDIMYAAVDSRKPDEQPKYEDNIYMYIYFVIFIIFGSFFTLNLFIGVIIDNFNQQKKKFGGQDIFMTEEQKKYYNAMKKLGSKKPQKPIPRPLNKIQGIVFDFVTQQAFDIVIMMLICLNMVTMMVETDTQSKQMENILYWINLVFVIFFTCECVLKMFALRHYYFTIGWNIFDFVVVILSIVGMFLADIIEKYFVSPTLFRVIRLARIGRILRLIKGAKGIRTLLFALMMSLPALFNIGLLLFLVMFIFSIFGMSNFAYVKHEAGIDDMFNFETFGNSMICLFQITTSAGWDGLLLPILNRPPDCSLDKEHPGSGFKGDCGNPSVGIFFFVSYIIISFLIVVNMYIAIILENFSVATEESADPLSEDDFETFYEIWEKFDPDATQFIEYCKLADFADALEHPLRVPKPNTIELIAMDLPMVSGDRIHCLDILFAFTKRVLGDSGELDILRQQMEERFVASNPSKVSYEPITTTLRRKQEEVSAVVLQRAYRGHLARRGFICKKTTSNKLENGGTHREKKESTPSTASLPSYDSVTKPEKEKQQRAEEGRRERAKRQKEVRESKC
smiles,measurement,setting,value
"CCC(CO)NCCOc1c(C)cccc1Cl (centres unmarked) [KM-408, R,S-2-((2-(2-chloro-6-methylphenoxy)ethyl)amino)butan-1-ol hydrochloride]",Inhibition of pain reaction,"guinea pigs; 0.5%, 5 min",94.4*** %
same,Inhibition of pain reaction,"guinea pigs; 0.5%, 30 min",8.3%
same,Inhibition of pain reaction,"guinea pigs; […], 5 min",80.5*** %
same,corneal anesthesia: active at,guinea pigs; guinea pigs,0.125%
same,pKa,[1],9.5
same,Rate constant k,[2],0.83·10^–3 h^−1
same,t0.1,[2],127.0 h
same,half-life at 5 mg/mL,"[2]; borate buffer with 20% v/v 1,4-dioxane, pH 9.9, read-out: Half-life t0.5 (converted)",34.8 days
same,LD50 at 24 h,"Acute toxicity (LD50); mouse, mice",19.8 mg/kg
same,LD50 at 72 h,"Acute toxicity (LD50); mouse, mice",246 mg/kg
same,LD50 at 24 h,"Acute toxicity (LD50); rat, rats",22.6 mg/kg
same,LD50 at 72 h,"Acute toxicity (LD50); rat, rats",670 mg/kg
same,IC50,hNav1.3 sodium channel; 10 Hz,13.1 µM
same,IC50,hNav1.3 sodium channel; Inactivated state,< 10 µM
same,IC50,hNav1.3 sodium channel; Tonic block,49.2 µM
same,IC50,hNav1.6 sodium channel; 10 Hz,20.5 µM
same,IC50,hNav1.6 sodium channel; Inactivated state,< 10 µM
same,IC50,hNav1.6 sodium channel; Tonic block,60.1 µM
"CCC(CO)NCCOc1c(C)cccc1Cl (centres unmarked) [Compound 4, R,S-2-((2-(2-chloro-6-methylphenoxy)ethyl)amino)butan-1-ol]",% of control specific binding,BB (non-selective),104.6%
same,% of control specific binding,Cl- channel (GABA-gated),99.6%
same,% of control specific binding,GABA (non-selective),109.3%
same,% of control specific binding,KV channel,104.2%
same,% of control specific binding,P2X,100.6%
same,% of control specific binding,P2Y,102.2%
same,% of control specific binding,PCP,72.6%
same,% of control specific binding,SKCa channel,90.5%
same,MTLE mice acute screen: % of baseline,"MTLE mice; at 30 mg/kg, recording period 5–25 min",80.8 ± 16.8 % of baseline
same,MTLE mice acute screen TPE,"MTLE mice; mice, ip",0.25 h
same,% Control +/- SEM,NMDA,63%
